Assay results taken from patent US9149519B2, “Chimeric human immunodeficiency virus type 1 (HIV-1) with enhanced dendritic cell and macrophage tropism comprising the simian immunodeficiency virus (SIV) minimal Vpx packaging domain” (New York University, priority 2012, dated 2015).

What was measured:
[1] = system: MDM and MDDC; experiment: Infectivity on MDM and MDDC (summary statements); format: cell-based, human; conditions: accessory protein provided in trans
[2] = system: MDM; format: cell-based, human
[3] = system: MDDC; format: cell-based, human
[4] = system: IFN-β mRNA; experiment: IFN-β mRNA induction in infected MDDC by qRT-PCR; format: cell-based, human; conditions: AZT 25 μM or Raltegravir 10 μM added prior to infection
[5] = system: resting CD4+ T cells; conditions: Siliciano et al. 2012; cited from earlier work

In the case of “HIV-2rod Vpx: HIV-2 Vpx accessory protein from codon-optimized expression vector”, the “Enhancement of MDM and MDDC infection” value [1] is reported as “only slightly enhanced MDM and MDDC infection”, the “Effect of packaged accessory protein on infectivity of the p6 chimeric virus” value (“Effect of packaged accessory protein” for short) [2] is reported as “enhanced the infectivity of the p6 chimeric virus on MDM” and the “Activity relative to SIVmac239 Vpx” value [3] is reported as “about 8%”. The “Effect of packaged accessory protein” value [3] was “enhanced the infectivity of the p6 chimeric virus”.

For `Cc1cn([C@H]2C[C@H](N=[N+]=[N-])[C@@H](CO)O2)c(=O)[nH]c1=O` [AZT], the “Effect on IFN-β induction by Vpx-containing p6 chimeric virus” value [4] was “blocked”.

In the case of `Cc1nnc(C(=O)NC(C)(C)c2nc(C(=O)NCc3ccc(F)cc3)c(O)c(=O)n2C)o1` [Raltegravir], the “Effect on IFN-β induction by Vpx-containing p6 chimeric virus” value [4] is reported as “blocked”.

In the case of `O=C(CCCCCCC(=O)Nc1ccccc1)NO` [SAHA, suberoylanilide hydroxamic acid], the Virus reactivation [5] is listed as “induced virus reactivation from resting CD4+ T cells”.

B1: SIVmac239 Vpx: lentiviral accessory protein, codon-optimized expression vector, SEQ ID NO: 85 (protein)
chain: MSDPRERIPPGNSGEETIGEAFEWLNRTVEEINREAVNHLPRELIFQVWQRSWEYWHDEQGMSPSYVKYRYLCLIQKALFMHCKKGCRCLGEGHGAGGWRPGPPPPPPPGLA
modifications: Simian immunodeficiency virus
With B1 the “Effect of packaged accessory protein” value [2] was “enhanced the infectivity of the p6 chimeric virus on MDM” and the “Effect of packaged accessory protein” value [3] was “enhanced the infectivity of the p6 chimeric virus”.

B2: SIVagm Vpr: SIVagm protein termed Vpr but more similar to Vpx (protein)
chain: MAEGRDSRERRPGWLEIWDLSREPWDEGLRDMVAELNQEAQRHFGRELLFQVWNFCQEEGERNGAPMIERAYRYYRLVQKALFVHFRCGCRRRTPFEPYEERRNGVGGGRDGREPPPGLA
modifications: Simian immunodeficiency virus
notes: SIVagm protein termed Vpr but more similar to Vpx
With B2 the “Enhancement of MDM and MDDC infection” value [1] was “did not enhance the infection”, the “Effect of packaged accessory protein” value [2] was “had no detectable effect” and the “Effect of packaged accessory protein” value [3] was “had no detectable effect”.
